Experiments:
[1] = Solubility Test 1: oxamyl dissolved in solvent systems, crystallization or precipitation observed; type: physicochemical
[2] = as above; type: physicochemical; remark: listed apart in the source
Protocol: Samples of each solution were kept at −6° C. and −18° C. for 7 days, after which the degree of crystallization or precipitation of oxamyl was observed.

[3] = 40 g oxamyl in Methanol:Water 80:20 g
[4] = 40 g oxamyl in Methanol:Water:Propylene Carbonate 30:20:50 g
[5] = 40 g oxamyl in Methanol:Water:Propylene Carbonate 75:20:5 g
[6] = 40 g oxamyl in Methanol:Water 50:50 g
[7] = 40 g oxamyl in Methanol:Water:Propylene Carbonate 40:30:30 g
[8] = 40 g oxamyl in Methanol:Water:Propylene Carbonate 40:40:20 g
[9] = 40 g oxamyl in Methanol:Water:Propylene Carbonate 50:40:10 g
[10] = 40 g oxamyl in Methanol:Water:Propylene Carbonate 60:20:20 g

CNC(=O)O/N=C(\SC)C(=O)N(C)C [Oxamyl, methyl 2-(dimethylamino)-N-[[(methylamino)carbonyl]oxy]-2-oxoethanimidothioate]
Observations at room temperature [1, 3]: Clear solution | Observations at room temperature [1, 4]: Clear solution | Observations at room temperature [1, 5]: Clear solution | Observations after 7 days at −6° C. [2, 6]: Mild precipitation | Observations after 7 days at −18° C. [2, 6]: Significant precipitation | Observations at room temperature [2, 6]: Clear solution | Observations after 7 days at −6° C. [2, 3]: Clear solution | Observations after 7 days at −18° C. [2, 3]: Significant precipitation | Observations after 7 days at −6° C. [2, 4]: Clear solution | Observations after 7 days at −18° C. [2, 4]: Clear solution | Observations after 7 days at −6° C. [2, 7]: Clear solution | Observations after 7 days at −18° C. [2, 7]: Clear solution | Observations at room temperature [2, 7]: Clear solution | Observations after 7 days at −6° C. [2, 8]: Clear solution | Observations after 7 days at −18° C. [2, 8]: Clear solution | Observations at room temperature [2, 8]: Clear solution | Observations after 7 days at −6° C. [2, 9]: Clear solution | Observations after 7 days at −18° C. [2, 9]: Clear solution | Observations at room temperature [2, 9]: Clear solution | Observations after 7 days at −6° C. [2, 10]: Clear solution | Observations after 7 days at −18° C. [2, 10]: Clear solution | Observations at room temperature [2, 10]: Clear solution | Observations after 7 days at −6° C. [2, 5]: Clear solution | Observations after 7 days at −18° C. [2, 5]: Clear solution | solubility for oxamyl ([2]; solvent system comprising methanol, water and propylene carbonate, temperatures down to −18° C.): significantly higher solubility
